In patent US20260184710A1, “CASITAS B-LINEAGE LYMPHOMA PROTOONCOGENE B (CBL-B) DEGRADING COMPOUNDS AND ASSOCIATED METHODS OF USE” (Arvinas Operations, Inc., priority 2022, published 2026):

Key:
Cbl-b [1] = target: T1, Cbl-b (Homo sapiens, UniProt Q13191); assay: Cbl-b Degradation Method A (FACS, anti-Cbl-b antibody staining); format: cell-based; settings: for DC50: half maximal degradation, read-out: Cbl-b Degredation Method A IC50; for Dmax: Jurkat, read-out: Cbl-b Degredation Method A Dmax (%)
T1 construct: Cbl-b-HiBit KI Jurkat Cells were purchased from Promega; host or cells: Cbl-b-HiBiT knock-in Jurkat cells
How it was run: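 Readout is flow cytometry of fixed, permeabilized cells immunostained for Cbl-b (primary 1:200, AF488 secondary). Cells were Cbl-b-HiBit knock-in Jurkat, exposed to compound ≥20 h at 37 °C; half-maximal degradation concentration (DC50) and maximal degradation (Dmax) calculated relative to control.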

Cbl-b [2] = target: T1, Cbl-b; assay: Cbl-b Degradation Method B (Nano-Glo HiBiT lytic detection); format: cell-based; settings: Cbl-b-HiBit KI Jurkat Cells, incubated at least 6-24 hours; for DC50: half maximal degradation, read-out: Cbl-b Degredation Method B IC50; for Cbl-b Degredation Method B Dmax (%) / Dmax: maximum degradation observed; for Dmax: read-out: Cbl-b Degredation Method B Dmax (%)
How it was run: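 An 11-point, 3-fold compound dilution was applied for 6-24 hours to Jurkat cells carrying HiBiT-tagged endogenous Cbl-b. Lytic HiBiT luminescence quantified residual protein. Outputs are DC50 and Dmax relative to DMSO control.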

[3] = Cbl-b-HiBit KI Jurkat Cells, incubated at least 20 hours
[4] = Cbl-b-HiBit KI Jurkat Cells, incubated at least 20 hours, maximum degradation observed

T1 sequence (Q13191 whole entry): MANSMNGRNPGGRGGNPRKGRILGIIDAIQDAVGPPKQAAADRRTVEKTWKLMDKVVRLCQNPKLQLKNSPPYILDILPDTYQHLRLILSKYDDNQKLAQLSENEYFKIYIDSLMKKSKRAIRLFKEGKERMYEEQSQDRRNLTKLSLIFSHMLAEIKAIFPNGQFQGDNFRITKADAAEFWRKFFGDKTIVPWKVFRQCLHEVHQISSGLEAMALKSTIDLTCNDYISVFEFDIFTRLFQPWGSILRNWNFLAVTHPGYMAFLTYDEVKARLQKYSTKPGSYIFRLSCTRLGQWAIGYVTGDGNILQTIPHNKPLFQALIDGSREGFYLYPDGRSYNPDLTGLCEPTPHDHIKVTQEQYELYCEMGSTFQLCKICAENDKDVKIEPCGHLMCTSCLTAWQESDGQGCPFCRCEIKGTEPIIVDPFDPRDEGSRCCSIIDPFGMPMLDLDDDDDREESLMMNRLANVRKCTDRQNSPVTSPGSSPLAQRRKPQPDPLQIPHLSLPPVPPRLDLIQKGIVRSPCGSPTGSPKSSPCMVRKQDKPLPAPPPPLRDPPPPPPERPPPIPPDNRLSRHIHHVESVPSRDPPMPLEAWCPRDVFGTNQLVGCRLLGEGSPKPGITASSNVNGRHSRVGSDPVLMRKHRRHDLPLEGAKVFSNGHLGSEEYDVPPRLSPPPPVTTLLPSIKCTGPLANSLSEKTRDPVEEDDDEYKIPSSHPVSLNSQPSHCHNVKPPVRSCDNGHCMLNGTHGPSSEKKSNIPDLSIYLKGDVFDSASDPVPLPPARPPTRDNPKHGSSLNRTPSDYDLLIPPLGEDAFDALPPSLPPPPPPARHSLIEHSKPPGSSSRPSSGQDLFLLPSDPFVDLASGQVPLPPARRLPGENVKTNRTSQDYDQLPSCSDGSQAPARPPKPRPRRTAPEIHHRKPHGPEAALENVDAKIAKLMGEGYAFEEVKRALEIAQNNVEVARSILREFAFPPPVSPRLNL

SMILES	DC50 (Cbl-b [1]; [3])	Dmax (Cbl-b [1]; [4])	DC50 (Cbl-b [2])	Cbl-b Degredation Method B Dmax (%) (Cbl-b [2])	Dmax (Cbl-b [2])	Dmax (Cbl-b [1])
CC(C)n1c(=O)n(C2CCC(=O)NC2=O)c2cccc(N3CCC(O[C@H]4CC[C@H](CN5CCC6(CCN(Cc7cc8c(c(C(F)(F)F)c7)CN(c7cccc([C@]9(Cc%10nncn%10C)C[C@@H](C#N)C9)c7)C8=O)CC6)CC5)CC4)CC3)c21 (stereo partly shown) [Example 317, (1r,3r)-3-[(4-methyl-4H-1,2,4-triazol-3-yl)methyl]-3-(3-{1-oxo-6-[(9-{[(1r,4r)-4-({1-[1-(2,6-dioxopiperidin-3-yl)-2-oxo-3-(propan-2-yl)-2,3-dihydro-1H-1,3-benzodiazol-4-yl]piperidin-4-yl}oxy)cyclohexyl]methyl}-3,9-diazaspiro[5.5]undecan-3-yl)methyl]-4-(trifluoromethyl)-2,3-dihydro-1H-isoindol-2-yl}phenyl)cyclobutane-1-carbonitrile]	50 to 500 nM	35 to 70%	< 5 nM	C (C ≤ 35)	–	–
Cn1cnnc1CC1(c2cccc(N3Cc4c(cc(CN5CCC(CN6CCC(COc7ccc8c(c7)C(=O)N(C7CCC(=O)NC7=O)C8=O)CC6)CC5)cc4C(F)(F)F)C3=O)c2)COC1 (stereo not shown) [Example 84, 2-(2,6-dioxopiperidin-3-yl)-5-({1-[(1-{[2-(3-{3-[(4-methyl-4H-1,2,4-triazol-3-yl)methyl]oxetan-3-yl}phenyl)-3-oxo-7-(trifluoromethyl)-2,3-dihydro-1H-isoindol-5-yl]methyl}piperidin-4-yl)methyl]piperidin-4-yl}methoxy)-2,3-dihydro-1H-isoindole-1,3-dione]	> 500 nM	–	> 500 nM	–	–	–
CC1CC(N2CCC(COCCOc3ccc4c(c3)C(=O)N(C3CCC(=O)NC3=O)C4=O)CC2)CN(Cc2cc3c(c(C(F)(F)F)c2)CN(c2cccc(C4(Cc5nncn5C)COC4)c2)C3=O)C1 (stereo not shown) [Example 102, 2-(2,6-dioxopiperidin-3-yl)-5-{2-[(5′-methyl-1′-{[2-(3-{3-[(4-methyl-4H-1,2,4-triazol-3-yl)methyl]oxetan-3-yl}phenyl)-3-oxo-7-(trifluoromethyl)-2,3-dihydro-1H-isoindol-5-yl]methyl}-[1,3′-bipiperidin]-4-yl)methoxy]ethoxy}-2,3-dihydro-1H-isoindole-1,3-dione]	> 500 nM	–	> 500 nM	–	–	–
Cn1cnnc1CC1(c2cccc(N3Cc4c(cc(CN5CCC(CN6CC(C7CN(c8ccc9c(c8)C(=O)N(C8CCC(=O)NC8=O)C9=O)C7)C6)CC5)cc4C(F)(F)F)C3=O)c2)COC1 (stereo not shown) [Example 83, 2-(2,6-dioxopiperidin-3-yl)-5-{1′-[(1-{[2-(3-{3-[(4-methyl-4H-1,2,4-triazol-3-yl)methyl]oxetan-3-yl}phenyl)-3-oxo-7-(trifluoromethyl)-2,3-dihydro-1H-isoindol-5-yl]methyl}piperidin-4-yl)methyl]-[3,3′-biazetidin]-1-yl}-2,3-dihydro-1H-isoindole-1,3-dione]	> 500 nM	–	> 500 nM	–	–	–
CC1c2nc(N3CCC(CN4CCN(CC5CCN(Cc6cc7c(c(C(F)(F)F)c6)CN(c6cccc([C@]8(Cc9nncn9C)C[C@@H](C#N)C8)c6)C7=O)C(C)(C)C5)CC4)CC3)ccc2C(=O)N1C1CCC(=O)NC1=O (stereo partly shown) [Example 277, (1r, 3r)-3-(3-{6-[(4-{[4-({1-[6-(2,6-dioxopiperidin-3-yl)-7-methyl-5-oxo-5H, 6H, 7H-pyrrolo [3,4-b]pyridin-2-yl]piperidin-4-yl}methyl)piperazin-1-yl]methyl}-2,2-dimethylpiperidin-1-yl)methyl]-1-oxo-4-(trifluoromethyl)-2,3-dihydro-1H-isoindol-2-yl}phenyl)-3-[(4-methyl-4H-1,2,4-triazol-3-yl)methyl]cyclobutane-1-carbonitrile]	5 to 50 nM	–	< 5 nM	C (C ≤ 35)	–	< 35%
Cn1cnnc1CC1(c2cccc(N3Cc4c(cc(N5CC(C6CCN(c7ccc8c(c7)C(=O)N(C7CCC(=O)NC7=O)C8=O)CC6)C5)cc4C(F)(F)F)C3=O)c2)COC1 (stereo not shown) [Example 129, 2-(2,6-dioxopiperidin-3-yl)-5-(4-{1-[2-(3-{3-[(4-methyl-4H-1,2,4-triazol-3-yl)methyl]oxetan-3-yl}phenyl)-3-oxo-7-(trifluoromethyl)-2,3-dihydro-1H-isoindol-5-yl]azetidin-3-yl}piperidin-1-yl)-2,3-dihydro-1H-isoindole-1,3-dione]	50 to 500 nM	–	> 500 nM	–	–	–
Cn1cnnc1CC1(c2cccc(N3Cc4c(cc(CN5CCC(COCCOCCOc6ccc7c(c6)C(=O)N(C6CCC(=O)NC6=O)C7=O)CC5)cc4C(F)(F)F)C3=O)c2)COC1 (stereo not shown) [Example 89, 2-(2,6-dioxopiperidin-3-yl)-5-(2-{2-[(1-{[2-(3-{3-[(4-methyl-4H-1,2,4-triazol-3-yl)methyl]oxetan-3-yl}phenyl)-3-oxo-7-(trifluoromethyl)-2,3-dihydro-1H-isoindol-5-yl]methyl}piperidin-4-yl)methoxy]ethoxy}ethoxy)-2,3-dihydro-1H-isoindole-1,3-dione]	> 500 nM	–	> 500 nM	–	–	–
Cn1cnnc1CC1(c2cccc(N3Cc4c(cc(N5CCC(CC6CCN(c7cc8c(cc7F)C(=O)N(C7CCC(=O)NC7=O)C8=O)CC6)CC5)cc4C(F)(F)F)C3=O)c2)COC1 (stereo not shown) [Example 118, 2-(2,6-dioxopiperidin-3-yl)-5-fluoro-6-[4-({1-[2-(3-{3-[(4-methyl-4H-1,2,4-triazol-3-yl)methyl]oxetan-3-yl}phenyl)-3-oxo-7-(trifluoromethyl)-2,3-dihydro-1H-isoindol-5-yl]piperidin-4-yl}methyl)piperidin-1-yl]-2,3-dihydro-1H-isoindole-1,3-dione]	> 500 nM	–	> 500 nM	–	–	–

Further lines, with some results ahead:

DC50 (Cbl-b [1]; [3])	Dmax (Cbl-b [1]; [4])	DC50 (Cbl-b [2])	Cbl-b Degredation Method B Dmax (%) (Cbl-b [2])	Dmax (Cbl-b [2])	SMILES	Dmax (Cbl-b [1])
5 to 50 nM	35 to 70%	5 to 50 nM	–	35 to 70%	Cn1cnnc1CC1(c2cccc(N3Cc4c(cc(N5CC6(CCN(CC7CCN(c8ccc9c(c8)C(=O)N(C8CCC(=O)NC8=O)C9=O)CC7)CC6)C5)cc4C(F)(F)F)C3=O)c2)COC1 (stereo not shown) [Example 115, 2-(2,6-dioxopiperidin-3-yl)-5-[4-({2-[2-(3-{3-[(4-methyl-4H-1,2,4-triazol-3-yl)methyl]oxetan-3-yl}phenyl)-3-oxo-7-(trifluoromethyl)-2,3-dihydro-1H-isoindol-5-yl]-2,7-diazaspiro[3.5]nonan-7-yl}methyl)piperidin-1-yl]-2,3-dihydro-1H-isoindole-1,3-dione]	–
< 5 nM	> 70%	< 5 nM	–	35 to 70%	Cn1cnnc1C(c1cccc(N2Cc3c(cc(CN4CCC[C@H](CN5CCN(C[C@H]6CC[C@@H](OC7CCN(c8ccc9c(c8F)CN(C8CCC(=O)NC8=O)C9=O)CC7)CC6)CC5)C4)cc3C(F)(F)F)C2=O)c1)C1CCC1 (stereo partly drawn) [Example 158, 3-[4-fluoro-1-oxo-5-(4-{[(1r,4r)-4-[(4-{[(3S)-1-[(2-{3-[cyclobutyl(4-methyl-4H-1,2,4-triazol-3-yl)methyl]phenyl}-3-oxo-7-(trifluoromethyl)-2,3-dihydro-1H-isoindol-5-yl)methyl]piperidin-3-yl]methyl}piperazin-1-yl)methyl]cyclohexyl]oxy}piperidin-1-yl)-2,3-dihydro-1H-isoindol-2-yl]piperidine-2,6-dione]	–
5 to 50 nM	35 to 70%	< 5 nM	–	35 to 70%	Cn1cnnc1CC1(c2cccc(N3Cc4c(cc(N5CC6(CCN(CC7CCN(c8ccc9c(n8)CN(C8CCC(=O)NC8=O)C9=O)CC7)CC6)C5)cc4C(F)(F)F)C3=O)c2)COC1 (stereo not shown) [Example 131, 3-{2-[4-({2-[2-(3-{3-[(4-methyl-4H-1,2,4-triazol-3-yl)methyl]oxetan-3-yl}phenyl)-3-oxo-7-(trifluoromethyl)-2,3-dihydro-1H-isoindol-5-yl]-2,7-diazaspiro[3.5]nonan-7-yl}methyl)piperidin-1-yl]-5-oxo-5H,6H,7H-pyrrolo[3,4-b]pyridin-6-yl}piperidine-2,6-dione]	–
5 to 50 nM	35 to 70%	< 5 nM	C (C ≤ 35)	–	CC1c2nc(N3CCC(O[C@H]4CC[C@H](CN5CCN(Cc6cc7c(c(C(F)(F)F)c6)CN(c6cccc(C8(c9nncn9C)CCO8)c6)C7=O)C(C)(C)C5)CC4)CC3)ccc2C(=O)N1C1CCC(=O)NC1=O (stereo partly shown) [Example 281, 3-[7-methyl-5-oxo-2-(4-{[(1r, 4r)-4-({3,3-dimethyl-4-[(2-{3-[2-(4-methyl-4H-1,2,4-triazol-3-yl)oxetan-2-yl]phenyl}-3-oxo-7-(trifluoromethyl)-2,3-dihydro-1H-isoindol-5-yl)methyl]piperazin-1-yl}methyl)cyclohexyl]oxy}piperidin-1-yl)-5H, 6H, 7H-pyrrolo[3,4-b]pyridin-6-yl]piperidine-2,6-dione]	–
5 to 50 nM	> 70%	< 5 nM	–	35 to 70%	COc1c(N2CCC(CN3CCC4(CC3)CN(c3cc5c(c(C(F)(F)F)c3)CN(c3cccc(C6(Cc7nncn7C)COC6)c3)C5=O)C4)CC2)ccc2c1CN(C1CCC(=O)NC1=O)C2=O (stereo not shown) [Example 8, 3-{4-methoxy-5-[4-({2-[2-(3-{3-[(4-methyl-4H-1,2,4-triazol-3-yl)methyl]oxetan-3-yl}phenyl)-3-oxo-7-(trifluoromethyl)-2,3-dihydro-1H-isoindol-5-yl]-2,7-diazaspiro [3.5]nonan-7-yl}methyl)piperidin-1-yl]-1-oxo-2,3-dihydro-1H-isoindol-2-yl}piperidine-2,6-dione]	–
